Molecules are shown by their SMILES. Activity calls are given as the source filed them.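 How the source made its calls: active means growth-inhibition EC50 no more than tenfold above the top tested dose; inconclusive means flat fit between 30% and 70% inhibition, or unreliable fit; inactive means EC50 more than tenfold above the top tested dose.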

The subject of the experiment is E. coli NEB5alpha growth, BacTiter-Glo luminescence, 4 h. Put plainly: antibacterial activity against E. coli NEB5alpha – luminescence, counter-screen for MEX-5/POS-1 RNA-binding inhibitor project, dose response (AID 1959).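 Further: pUC19-transformed ampicillin-resistant cells grown in LB with ampicillin.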 A general note: A counterscreen serves to expose hits that act by an unwanted route or on another target.
One may read the EC50 as the concentration needed to bring the measured effect to its halfway point. As to `CC(C)(C)c1ccc(C(=O)Nc2cccc3ncccc23)cc1`, the EC50 was > 11 µM (inactive).

Regarding `Cc1nnc(N2C(=O)C(O)=C(C(=O)c3ccco3)C2c2ccc(C(C)(C)C)cc2)s1` (stereo not given), the EC50 is > 11 µM (inactive).

As for `CCN(CC)C(=O)c1sc2nc(-c3cccs3)cc(-c3cccs3)c2c1N`, the EC50 is > 11 µM (inactive).

As for `CCOc1cc(C(c2c(C)[nH][nH]c2=O)c2c(C)[nH][nH]c2=O)ccc1O`, the EC50 is > 11 µM (inactive).

For `CSc1nncc(/C(C)=N\Nc2ccccc2)n1`, the EC50 is > 11 µM (inactive).

In the case of `Cc1ccc(C2c3sc(=O)[nH]c3SC3C(=O)NC(=O)C32)cc1` (stereo not given), the EC50 is > 11 µM (inactive).

For the compound `O=c1[nH]c(CN2CCc3ccccc3C2)nc2ccccc12`, the EC50 was > 11 µM (inactive).

For the compound `O=C1c2ccccc2C(=O)c2[nH]cnc21`, the EC50 was > 11 µM (inactive).

Regarding `CCOC(=O)C1=C2NC(=O)c3ccccc3N2C(=O)C1`, the EC50 is > 11 µM (inactive).

For `O=C(O)c1ccc(S(=O)(=O)/N=C2\C=C(Nc3ccccc3F)C(=O)c3ccccc32)cc1`, the EC50 was > 11 µM (inactive).

In the case of `CC(C)OC(=O)CC(=O)c1sc2nc3c(cc2c1N)CN(C)CC3`, the EC50 was > 11 µM (inactive).

As to `COc1ccc(-n2c(NNC(C)=O)nc3sc4c(c3c2=O)CCCC4)cc1`, the EC50 was > 11 µM (inactive).

Consider `O=c1/c(=C\c2ccc(O)cc2)sc2nc(-c3ccccc3)c(-c3ccccc3)n12`, for which the EC50 is > 11 µM (inactive).

In the case of `O=C(NNC(=O)c1ccccc1O)c1cccc(Br)c1`, the EC50 is > 11 µM (inactive).

Take `COc1ccc(C2C(C#N)=C(N)OC3=C2C(=O)CC(C)(C)C3)cc1` (stereo not given): the EC50 was > 11 µM (inactive).

Regarding `COc1ccc(C2=CC3=C(Br)C(=O)C(C)(OC(=O)c4ccco4)C(=O)C3=CO2)cc1` (stereo not given), the EC50 was > 11 µM (inactive).

With `CC(C)OCC(O)CN1CCN(CCN2C(=O)c3cccc4cccc(c34)C2=O)CC1` (stereo not given), the EC50 was > 11 µM (inactive).

As to `COc1ccc(C2C(C#N)=C(/N=C/N3CCN(C)CC3)OC3=C2C(=O)CC(C)(C)C3)cc1OC` (stereo not given), the EC50 is > 11 µM (inactive).

Take `Cc1ccc(-c2nnc(Nc3ccc(CC(N)=O)cc3)c3ccccc23)cc1S(N)(=O)=O`: the EC50 is > 11 µM (inactive).

As for `Cc1cc(=O)[nH]c(N/N=C/c2ccc(O)c(O)c2)n1`, the EC50 was > 11 µM (inactive).

Consider `Cc1ccccc1N=Nc1c(O)n(C)c2ccccc12`, for which the EC50 was > 11 µM (inactive).

Take `Nc1ccc(S(=O)(=O)NNC(=O)C(=O)NNc2ccccn2)cc1`: the EC50 is > 11 µM (inactive).

Turning to `CCOC(=O)C1Nc2ccc(C)cc2C2C=CCC12` (stereo not given), the EC50 was > 11 µM (inactive).

As for `CCCCc1ccc(NC(=O)CSC2=NN3CCCC(=O)N=C3S2)cc1`, the EC50 is > 11 µM (inactive).

`Cc1cc(=O)n2[nH]c(=O)c(N=Nc3ccccc3)c2[nH]1`: the EC50 was > 11 µM (inactive).

With `N=c1c(C(=O)NCCN2CCOCC2)cc2c(=O)n3ccccc3nc2n1CCc1ccccc1`, the EC50 is > 11 µM (inactive).

Turning to `Oc1[nH]c2ccc(Br)cc2c1N=Nc1nn[nH]n1`, the EC50 was > 11 µM (inactive).

As for `CCCNc1c(F)c(F)c2c(C)c3ccccc3nc2c1F`, the EC50 was > 11 µM (inactive).

As for `COc1ccc(C(=O)/C=C/Nc2ccc([N+](=O)[O-])cc2C)cc1OC`, the EC50 was > 11 µM (inactive).

With `COc1cc(N=Cc2c(O)c3ccccc3oc2=O)c(OC)cc1Cl`, the EC50 was > 11 µM (inactive).

For the compound `O=C(O)COc1ccc(/C=C/c2nc(-c3ccccc3O)n[nH]2)cc1`, the EC50 was > 11 µM (inactive).

For `Cc1cc(N=Cc2c(O)n(-c3ccc4c(c3)OCO4)c(=O)c3ccccc23)ccn1`, the EC50 is > 11 µM (inactive).

Regarding `COCCCn1c(N)c(-c2nc3ccccc3n2C)c2nc3ccccc3nc21`, the EC50 was > 11 µM (inactive).

With `CC(=O)N=Cc1c(C)c(C#N)c(=O)n(C)c1O`, the EC50 is > 11 µM (inactive).

On to `CN1C[C@H](CO)C=C2c3cccc4[nH]cc(c34)C[C@H]21`, for which the EC50 is > 11 µM (inactive).

Take `COc1ccccc1N1C(=O)NC(=O)/C(=C/c2ccc([N+](=O)[O-])s2)C1=O`: the EC50 is > 11 µM (inactive).

For `COc1ccc(/C=C/C(=O)c2c(C)cc(C)[nH]c2=O)c2ccccc12`, the EC50 was > 11 µM (inactive).

Consider `Cc1ccccc1NC(=O)CN1C(=O)S/C(=C\c2cccn2-c2cccc(C(=O)O)c2)C1=O`, for which the EC50 was > 11 µM (inactive).

In the case of `Cc1ccc(S(=O)(=O)Nc2ccccc2F)cc1C(=O)NNC(=O)c1csc(N2CCOCC2)n1`, the EC50 is > 11 µM (inactive).

On to `C=CCN1C(=O)NC(=O)/C(=C/C=C/c2ccccc2)C1=O`, for which the EC50 is > 11 µM (inactive).

For the compound `O=C(O)CCCN1C(=O)/C(=C/c2ccc(-c3nc4ccccc4s3)o2)SC1=S`, the EC50 was > 11 µM (inactive).

Take `COc1cc2ccccc2cc1C(=O)NC(=S)Nc1cc(C(=O)O)ccc1C`: the EC50 was > 11 µM (inactive).

With `COC(=O)c1cc(C(=O)OC)cc(-n2c(C)cc(C(=O)COC(=O)CNS(=O)(=O)c3ccc(C)cc3)c2C)c1`, the EC50 was > 11 µM (inactive).

`Cc1cc(/C=C(/C#N)c2nc3ccccc3[nH]2)c(C)n1-c1cc(C(=O)O)cc(C(=O)O)c1`: the EC50 was > 11 µM (inactive).

Consider `O=C(O)C(=O)/C(=C\c1ccc(Cl)cc1)c1ccc2ccccc2n1`, for which the EC50 is > 11 µM (inactive).

For `O=C1CSC(=S)N1/N=C/c1ccc(Cl)c([N+](=O)[O-])c1`, the EC50 is > 11 µM (inactive).

In the case of `C=CCN1C(=O)S/C(=C\c2ccc(N3CCOCC3)cc2C)C1=O`, the EC50 is > 11 µM (inactive).

Regarding `Cc1[nH]c2ccccc2c1/C=N/NC(=S)NC(C)C`, the EC50 was > 11 µM (inactive).

As for `N#C/C(=N\Nc1ccc(Cl)cc1)C(=O)c1ccsc1`, the EC50 was > 11 µM (inactive).

With `CCCn1cc2c3c(cccc31)C1CC(C)CN(C)C1C2` (stereo not given), the EC50 was > 11 µM (inactive).

With `COc1ccc(N2C(=O)/C(=C/c3ccc(N(C)C)o3)C(=O)NC2=S)cc1`, the EC50 was > 11 µM (inactive).

`NC(=O)[C@@H]1CCCN1Cc1c(C(=O)N2CCc3ccccc3C2)nc2ccc(Cl)cn12`: the EC50 is > 11 µM (inactive).

With `CC1(C)CC(=O)C2=C(C1)OC(N)=C(C#N)C2c1ccc(OC(=O)N2CCOCC2)cc1` (stereo not given), the EC50 is > 11 µM (inactive).

Regarding `CCOC(=O)c1cc(CC)sc1/N=C/c1c(O)[nH]c(=S)[nH]c1=O`, the EC50 is > 11 µM (inactive).

Regarding `Cc1ccc(N=Cc2nc(-c3ccc(C)cc3)oc2O)cc1`, the EC50 is > 11 µM (inactive).

For the compound `O=C(Nc1ccccc1)NC1(C(=O)NCc2ccc3c(c2)OCO3)CCCCC1`, the EC50 is > 11 µM (inactive).

As for `Nc1c(C(=O)Nc2nc3ccccc3s2)sc2nc(-c3cccs3)ccc12`, the EC50 was > 11 µM (inactive).

As to `CCOc1ccc(N2C(=O)/C(=C/c3ccc(C)o3)C(=O)NC2=S)cc1`, the EC50 is > 11 µM (inactive).

On to `CC1(CCl)N([O-])C2=C(CCCC2)[N+]1=O` (stereo not given), for which the EC50 was > 11 µM (inactive).

As for `O=C(O)Cc1ccc(O)c(O)c1`, the EC50 was > 11 µM (inactive).

For `C=CCSc1nnc(N2C(=O)C(O)=C(C(=O)c3ccco3)C2c2ccc(F)cc2)s1` (stereo not given), the EC50 is > 11 µM (inactive).

In the case of `Cc1cc(/C=C2\SC(=S)N(Cc3ccco3)C2=O)c(C)n1-c1cccnc1`, the EC50 was > 11 µM (inactive).

For `Nc1ncnc(NNC(=O)CNC(=O)c2c(F)cccc2Cl)c1[N+](=O)[O-]`, the EC50 was > 11 µM (inactive).

As to `Oc1c(Br)cc(Br)c(/C=N/n2c(-c3ccccc3)n[nH]c2=S)c1Br`, the EC50 was > 11 µM (inactive).

Take `CCN1C(=C(C#N)C#N)C=Cc2ccccc21`: the EC50 was > 11 µM (inactive).

In the case of `Cc1ccc(-c2cc(-c3ccco3)c(C#N)c(=O)[nH]2)cc1`, the EC50 was > 11 µM (inactive).

`CCOC(=O)/C=c1\s/c(=C\c2ccc3cc(OC)ccc3c2)c(=O)n1CC(=O)NCC1CCCO1` (stereo not given): the EC50 is > 11 µM (inactive).

In the case of `O=C(/C=C/c1c(Cl)cccc1Cl)N1CCOCC1`, the EC50 is > 11 µM (inactive).

For the compound `Cc1ccc(Cl)c2c1=NC(=O)C=2c1[nH]c(=S)[nH]c1O`, the EC50 is > 11 µM (inactive).

In the case of `COc1ccc(Nc2nc3ccccc3nc2NS(=O)(=O)c2cccs2)cc1`, the EC50 is > 11 µM (inactive).

Turning to `COCCCNC(=O)CCC(=O)NNc1nc2ccccc2c2nc(C)nn12`, the EC50 was > 11 µM (inactive).

In the case of `Cn1c(=O)[nH]c(=O)c2c1nc(N/N=C/C(Br)=C/c1ccccc1)n2CCO`, the EC50 was > 11 µM (inactive).

Consider `CCCCCCCCOc1ccc(C2OC34CCCCC3C(C#N)(C#N)C2(C#N)C(=N)O4)cc1` (stereo not given), for which the EC50 was > 11 µM (inactive).

In the case of `NC(=O)C[n+]1cccc2ccccc21`, the EC50 is > 11 µM (inactive).

Consider `O=C(c1ccco1)N1CCc2ccccc21`, for which the EC50 was > 11 µM (inactive).

For `COc1ccc(-n2cc(CNCc3cnc4ccccn34)c(-c3cccc(F)c3)n2)cc1`, the EC50 is > 11 µM (inactive).

Turning to `Cc1c(O)ccc(-c2n[nH]c(C(=O)O)c2-c2nc3ccccc3s2)c1O`, the EC50 was > 11 µM (inactive).

Take `CC(C)(O)[C@H]1O[C@H]2CC[C@@]3(C)[C@@](O)(CC[C@H]4Cc5c([nH]c6ccccc56)[C@@]43C)C2=CC1=O`: the EC50 was > 11 µM (inactive).

As for `CCN1C(=O)C(=Cc2ccc(N3CCOCC3)o2)C(=O)N(CC)C1=S`, the EC50 was > 11 µM (inactive).

As for `CC(=O)N(C)c1ccc(N=NC2C(=O)N(C(N)=S)N=C2C)cc1` (stereo not given), the EC50 was > 11 µM (inactive).

For `CCC(=O)OC1(C)C(=O)C=C2C=C(CCCCNC(=O)OC(C)(C)C)OC=C2C1=O` (stereo not given), the EC50 is > 11 µM (inactive).

With `Cc1n[nH]c(=O)nc1N/N=C/c1ccc(O)c([N+](=O)[O-])c1`, the EC50 is > 11 µM (inactive).

Take `Cc1ccc2nc3sc(C(=O)N4CCOCC4)c(N)c3cc2c1`: the EC50 is > 11 µM (inactive).

Take `COc1ccccc1N1C(=O)C(Cl)=C(Nc2ccccc2O)C1=O`: the EC50 was > 11 µM (inactive).

Regarding `CC1CCN(C(=O)CCN2C(=O)/C(=C/c3cccs3)SC2=S)CC1`, the EC50 was > 11 µM (inactive).

For the origin of these results see PubChem BioAssay AID1959 (Broad Institute, 2009).
